Where “and” joins values, the source holds several entries; their conditions need not be identical. Identical values can stand only once. Inconclusive results and toxic doses are left out. Rule as the data show it: active = T/C of 150% or more; inactive = T/C below 125%.
System: L1210 leukemia ip in BDF1 mice, survival T/C
Test: NCI In Vivo Anticancer Drug Screen. Data for tumor model L1210 Leukemia (intraperitoneal) in B6D2F1 (BDF1) mice
Conditions: endpoint: mean survival time, higher = longer survival
Summary of the method: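 Mice bearing the transplanted tumor received compound or vehicle. Survival of the treated group was divided by that of the vehicle-treated control group to give the ratio.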

[1] = dose: 100.0 mg/kg/injection, schedule: Q01DX009 (ip), vehicle: Klucel (hydroxypropylcellulose) (HPC)
[2] = dose: 100.0 mg/kg/injection, schedule: Q04DX003 (ip), vehicle: Klucel (hydroxypropylcellulose) (HPC)
[3] = dose: 200.0 mg/kg/injection, schedule: Q01DX009 (ip), vehicle: Klucel (hydroxypropylcellulose) (HPC)
[4] = dose: 200.0 mg/kg/injection, schedule: Q04DX003 (ip), vehicle: Klucel (hydroxypropylcellulose) (HPC)
[5] = dose: 400.0 mg/kg/injection, schedule: Q01DX009 (ip), vehicle: Klucel (hydroxypropylcellulose) (HPC)
[6] = dose: 400.0 mg/kg/injection, schedule: Q04DX003 (ip), vehicle: Klucel (hydroxypropylcellulose) (HPC)
[7] = dose: 100.0 mg/kg/injection, schedule: Q01DX001 (ip), vehicle: saline
[8] = dose: 100.0 mg/kg/injection, schedule: Q01DX009 (ip), vehicle: saline
[9] = dose: 200.0 mg/kg/injection, schedule: Q01DX001 (ip), vehicle: saline
[10] = dose: 100.0 mg/kg/injection, schedule: Q04DX002 (ip), vehicle: Klucel (hydroxypropylcellulose) (HPC)
[11] = dose: 200.0 mg/kg/injection, schedule: Q04DX002 (ip), vehicle: Klucel (hydroxypropylcellulose) (HPC)
[12] = dose: 400.0 mg/kg/injection, schedule: Q04DX002 (ip), vehicle: Klucel (hydroxypropylcellulose) (HPC)
[13] = dose: 50.0 mg/kg/injection, schedule: Q01DX001 (ip), vehicle: carboxymethylcellulose (CMC)
[14] = dose: 100.0 mg/kg/injection, schedule: Q01DX001 (ip), vehicle: carboxymethylcellulose (CMC)
[15] = dose: 200.0 mg/kg/injection, schedule: Q01DX001 (ip), vehicle: carboxymethylcellulose (CMC)
[16] = dose: 400.0 mg/kg/injection, schedule: Q01DX001 (ip), vehicle: carboxymethylcellulose (CMC)
[17] = dose: 100.0 mg/kg/injection, schedule: Q04DX003 (ip), vehicle: saline with Tween-80
[18] = dose: 200.0 mg/kg/injection, schedule: Q04DX003 (ip), vehicle: saline with Tween-80
[19] = dose: 400.0 mg/kg/injection, schedule: Q04DX003 (ip), vehicle: saline with Tween-80
[20] = dose: 100.0 mg/kg/injection, schedule: Q04DX002 (ip), vehicle: saline
[21] = dose: 200.0 mg/kg/injection, schedule: Q04DX002 (ip), vehicle: saline
[22] = dose: 400.0 mg/kg/injection, schedule: Q04DX002 (ip), vehicle: saline

Measured: T/C

CCOC(=O)/C=C\n1c(=O)cc(C)c2ccccc21
inactive: [1] 98 % of control | [2] 89 % of control | [3] 108 % of control | [4] 92 % of control | [5] 108 % of control | [6] 87 % of control

CC(C)c1nccn1Cc1ccccc1
inactive: dose: 25.0 mg/kg/injection, schedule: Q01DX001 (ip), vehicle: saline 97 % of control | dose: 25.0 mg/kg/injection, schedule: Q01DX009 (ip), vehicle: saline 105 % of control and 118 % of control | dose: 25.0 mg/kg/injection, schedule: Q04DX002 (ip), vehicle: saline 100 % of control and 101 % of control and 90 % of control | dose: 25.0 mg/kg/injection, schedule: Q04DX003 (ip), vehicle: saline 100 % of control | dose: 50.0 mg/kg/injection, schedule: Q01DX001 (ip), vehicle: saline 97 % of control | dose: 50.0 mg/kg/injection, schedule: Q01DX009 (ip), vehicle: saline 100 % of control and 102 % of control | dose: 50.0 mg/kg/injection, schedule: Q04DX003 (ip), vehicle: saline 92 % of control | dose: 75.0 mg/kg/injection, schedule: Q04DX002 (ip), vehicle: saline 106 % of control | [7] 112 % of control | [8] 100 % of control and 89 % of control

COc1ccc(C(=O)C2=CC(=O)C(=O)C2)cc1OC
inactive: [7] 98 % of control | [9] 98 % of control | dose: 400.0 mg/kg/injection, schedule: Q01DX001 (ip), vehicle: saline 94 % of control

O=C(O)Cc1nc2ccccc2n1CC(=O)O
inactive: [10] 96 % of control | [11] 93 % of control | [12] 100 % of control

O=S1(=O)CC2(N3CCOCC3)CCCCC21 (centres undefined)
inactive: [13] 98 % of control | [14] 104 % of control | [15] 98 % of control

C=CCc1ccc(OC(=O)Nc2cccc(OC)c2)c(OC)c1
inactive: [1] 106 % of control | [3] 98 % of control | [5] 88 % of control

O=[N+]([O-])C1CC12c1ccccc1-c1ccccc12 (centres undefined)
inactive: dose: 75.0 mg/kg/injection, schedule: Q01DX001 (ip), vehicle: carboxymethylcellulose (CMC) 106 % of control | dose: 150.0 mg/kg/injection, schedule: Q01DX001 (ip), vehicle: carboxymethylcellulose (CMC) 103 % of control | dose: 300.0 mg/kg/injection, schedule: Q01DX001 (ip), vehicle: carboxymethylcellulose (CMC) 97 % of control

C=CC1(C)CCC2C(=CCC3C(C)(C(=O)O)CCCC23C)C1 (centres undefined) (tested in a mixture with another compound)
inactive: [14] 104 % of control | [15] 95 % of control | [16] 95 % of control

O=C(O)CCCN1C(=O)C2C3CCC(C3)C2C1=O (centres undefined)
inactive: [17] 103 % of control | [18] 98 % of control | [19] 107 % of control

CC1COC(C(F)(F)Cl)(C(F)(F)Cl)O1 (centres undefined)
inactive: [8] 93 % of control and 97 % of control | [20] 96 % of control and 101 % of control | dose: 200.0 mg/kg/injection, schedule: Q01DX009 (ip), vehicle: saline 94 % of control and 92 % of control | [21] 96 % of control and 103 % of control | dose: 400.0 mg/kg/injection, schedule: Q01DX009 (ip), vehicle: saline 93 % of control and 105 % of control | [22] 100 % of control and 105 % of control

CCCCCCCC(=O)Nc1cc2c3c(c1)CCCN3CCC2
inactive: dose: 50.0 mg/kg/injection, schedule: Q04DX003 (ip), vehicle: saline with Tween-80 103 % of control | [17] 97 % of control | [18] 103 % of control

CC1CCOCO1 (centres undefined)
inactive: [13] 98 % of control | [14] 98 % of control | [15] 95 % of control | [16] 95 % of control

NC(CNC(=O)Oc1ccccc1)C(=O)O (centres undefined)
inactive: dose: 100.0 mg/kg/injection, schedule: Q01DX001 (ip), vehicle: saline with Tween-80 95 % of control | dose: 200.0 mg/kg/injection, schedule: Q01DX001 (ip), vehicle: saline with Tween-80 103 % of control | dose: 400.0 mg/kg/injection, schedule: Q01DX001 (ip), vehicle: saline with Tween-80 92 % of control

Oc1c(Br)cc(F)cc1Br
inactive: dose: 100.0 mg/kg/injection, schedule: Q04DX002 (ip), vehicle: saline with Tween-80 98 % of control | dose: 200.0 mg/kg/injection, schedule: Q04DX002 (ip), vehicle: saline with Tween-80 94 % of control

Cc1cccc(C2=N/C(=C\c3c(O)ccc4ccccc34)C2=O)c1
inactive: [20] 120 % of control | [21] 95 % of control | [22] 98 % of control

O=C(O)c1cc(-c2ccc3cc4c(cc3c2)OCO4)nc2ccccc12
inactive: dose: 75.0 mg/kg/injection, schedule: Q01DX001 (ip), vehicle: saline 97 % of control | dose: 150.0 mg/kg/injection, schedule: Q01DX001 (ip), vehicle: saline 101 % of control | dose: 300.0 mg/kg/injection, schedule: Q01DX001 (ip), vehicle: saline 93 % of control

CCCCCCCCSC(C)(C)C
inactive: dose: 100.0 mg/kg/injection, schedule: Q04DX003 (ip), vehicle: saline 102 % of control | dose: 200.0 mg/kg/injection, schedule: Q04DX003 (ip), vehicle: saline 101 % of control | dose: 400.0 mg/kg/injection, schedule: Q04DX003 (ip), vehicle: saline 93 % of control

O=C(O)/C=C/c1ccc(Cl)cc1Cl
inactive: dose: 100.0 mg/kg/injection, schedule: Q01DX009 (ip), vehicle: saline with Tween-80 88 % of control | dose: 200.0 mg/kg/injection, schedule: Q01DX009 (ip), vehicle: saline with Tween-80 87 % of control

CC(C)CC(CO)Cc1nc2ccccc2[nH]1 (centres undefined)
inactive: dose: 50.0 mg/kg/injection, schedule: Q04DX002 (ip), vehicle: Klucel (hydroxypropylcellulose) (HPC) 95 % of control | [10] 95 % of control | dose: 100.0 mg/kg/injection, schedule: Q04DX002 (ip), vehicle: other 105 % of control | dose: 100.0 mg/kg/injection, schedule: Q04DX003 (ip), vehicle: other 97 % of control | [11] 93 % of control and 92 % of control | dose: 200.0 mg/kg/injection, schedule: Q04DX002 (ip), vehicle: other 91 % of control and 92 % of control | dose: 200.0 mg/kg/injection, schedule: Q04DX003 (ip), vehicle: other 94 % of control | [12] 105 % of control | dose: 400.0 mg/kg/injection, schedule: Q04DX002 (ip), vehicle: other 102 % of control

Nc1cccc(Nc2cc(S(=O)(=O)O)c(N)c3c2C(=O)c2ccccc2C3=O)c1
inactive: dose: 5.0 mg/kg/injection, schedule: Q01DX001 (ip), vehicle: saline 100 % of control | dose: 10.0 mg/kg/injection, schedule: Q01DX001 (ip), vehicle: saline 94 % of control | dose: 20.0 mg/kg/injection, schedule: Q01DX001 (ip), vehicle: saline 100 % of control | dose: 40.0 mg/kg/injection, schedule: Q01DX001 (ip), vehicle: saline 100 % of control | dose: 80.0 mg/kg/injection, schedule: Q01DX001 (ip), vehicle: saline 103 % of control | [7] 93 % of control | [9] 100 % of control

c1ccc(-c2csc(-c3nc(-c4ccccc4)cs3)n2)cc1
inactive: [2] 90 % of control | [4] 95 % of control | [6] 102 % of control

CCOc1ccc(NC2CNC(=O)NC2=O)cc1 (centres undefined)
inactive: dose: 200.0 mg/kg/injection, schedule: Q01DX Z (ip), vehicle: methylcellulose (MC) 91 % of control

CC(=O)c1ccc(NC(N)=S)cc1
inactive: dose: 5.0 mg/kg/injection, schedule: Q01DX009 (ip), vehicle: saline with Tween-80 88 % of control | dose: 10.0 mg/kg/injection, schedule: Q01DX009 (ip), vehicle: saline with Tween-80 98 % of control | dose: 20.0 mg/kg/injection, schedule: Q01DX009 (ip), vehicle: saline with Tween-80 103 % of control and 90 % of control | dose: 40.0 mg/kg/injection, schedule: Q01DX009 (ip), vehicle: saline with Tween-80 97 % of control and 104 % of control | dose: 80.0 mg/kg/injection, schedule: Q01DX009 (ip), vehicle: saline with Tween-80 91 % of control

Cc1nc2[nH]c(=O)[nH]c(=O)c2[nH]1
inactive: [17] 91 % of control | [18] 101 % of control | [19] 90 % of control
